# Laboratory results reported in ChEMBL document CHEMBL1135433 (J Med Chem, 2002).
# Assay: Concentration required for 50% inhibition of Shiga-like toxin type 1 (Stx1A1)
row,Structure (SMILES),IC50 [µM]
1,Nc1nc(O)c2nc(CNc3ccc(C(=O)O)cc3)cnc2n1 [PTEROIC ACID],600
2,Cc1cc2c(O)[nH]c(N)nc-2n1,4300
3,Cc1nc2c(=O)[nH]c(N)nc2o1,1000
4,Nc1nc2c(c(=O)[nH]1)CC=N2,2000
